Legend:
[1] = tested on: mecA gene; Staphylococcus ribosomal nucleic acids; assay: HPA after thermal lysis, base hydrolysis and neutralization (Examples 5-7); type: binding, S. aureus
Method: The cultured S. aureus specimens were lysed by suspending 1 μl loops of bacteria in 150 μl of lysis buffer and then incubating at 105° C. for 15 minutes. Next, 100 μl of 2 N LiOH base solution was added and RNA was hydrolyzed by incubating the mixtures at 60° C. for 15 minutes. Hydrolyzed samples were neutralized by the addition of 100 μl of a neutralizing reagent that included 2 N HCl and 100 mM succinate buffer (pH 5.5 prior to acidification with HCl). Specifically hybridized probe was detected by standard HPA, essentially as described in Example 1.
Specimens (1 μl loops of bacteria) were treated and tested essentially as described in Example 5 with the following differences: incubation for lysis was for 15 minutes and incubation for hybridization was for 45 minutes for samples shown in Tables 7-8, while incubation for lysis was for 10 minutes and incubation for hybridization was for 20 minutes for samples shown in Table 9. All of the base-treated solutions were neutralized by the addition of 250 μl of 0.8 N HCl containing 100 mM succinate.
2′-methoxy analogs of the AE-labeled DNA probes were prepared by standard phosphoramidite synthesis using 2′ methoxy phosphoramidite analogs. Additional linker positions, which are indicated by parentheses in Table 11, for probe 2 were also prepared for testing. Deoxy probes and 2′-methoxy probe analogs were tested essentially as described in Example 5, except as noted below. Probes synthesized using 2′-methoxy nucleotide analogs are particularly identified by the “MeO” designations. Brief summaries of the procedures used to obtain the results are appended to the tables.

[2] = tested on: mecA gene; Staphylococcus spp. and S. aureus ribosomal nucleic acids; assay: HPA probe panel on clinical and ATCC isolates (Examples 8-9); type: binding
Method: Oxacillin MIC results were provided by an outside laboratory. The GP Probe results were determined as described in Example 8.

[3] = tested on: mecA gene; rRNA (pan-bacterial probe); assay: Hybridization Protection Assay (HPA), AE-labeled probes, thermally lysed specimens (Examples 1-2); type: binding, S. aureus
Method: The specimens were lysed by suspending approximately 5×10^8 cells in a lysis buffer (0.1% lithium lauryl sulfate, 1 mM EDTA, 20 mM lithium succinate, pH 5.5) and then incubating in a heat block set at 110° C. for 20 minutes. Thermal lysis of a variety of other specimens was effected under a range of temperature (heat block set at about 95° C. to 110° C.) and time (about 10 to 25 minutes) conditions. The lysed samples were tested for the presence of target sequences complementary to the probes using a Hybridization Protection Assay (HPA) as described by Arnold et al., in Clin. Chem. 35:1588(1989) and U.S. Pat. No. 6,004,745. 50 μl of the heat-treated suspension was incubated with an equal volume of AE-labeled probe in 2× hybridization buffer (1.2 M LiCl, 2% lithium lauryl sulfate, 20 mM EDTA, 20 mM EGTA, 100 mM lithium succinate, pH 5.5) at 60° C. for 30 minutes. The pH of succinate solutions may range from about 4.5 to about 5.5, although it is desirable to use a pH of 4.8 for succinate buffering. 300 μl of a selection reagent (0.6 M borate buffered solution, pH 8.5; note, pH may vary from 8.0 to 9.0) was added, the mixture was heated at 60° C. for 10 minutes to effect differential hydrolysis, and the samples were read in a GEN-PROBE® LEADER® luminometer using sequential 300 μl injections of 0.1% H2O2 and 1 N NaOH solutions (see Arnold et al, supra; GEN-PROBE® Detection Reagent Kit, Cat. No. 1791 may be used).
Procedures similar to those described in Example 1 were conducted using a large number of bacterial samples, except that parallel hybridization reactions employed a pan-bacterial probe which targeted rRNA (Probe Reagent 1, GEN-PROBE® MTC-NI Kit, catalog no. 4573). […] The pan-bacterial probe reagent served as a positive control for lysis of all of the specimens. In this procedure each sample was tested against a panel of the three probes contained in separate hybridization reactions. Aliquots of the samples tested using the pan-bacterial probe reagent were diluted 1:3000 prior to performing luminometry so that results fell within the linear range of the detector. The signals indicated lysis and detection of ribosomal nucleic acids in each of the samples. These values depended on the number of bacterial cells in the specimen, as well as on the extent of cell lysis and the release or accessibility of ribosomal nucleic acids from the cells to be detected by the pan-bacterial probe.

[4] = Table 10, neutralize 100 μl 2 N HCl containing 200 mM succinate, hybridize 45 minutes at 60° C.

With “CCGAACTGAGAACAACTTTATGGGATTTGC (chemistry not given here) [Staphylococcus spp. probe with helpers]” the RLU ([1]; Table 6, GP18(Neg), MSSA ATCC #12600) was 170,434 RLU, the RLU ([1]; Table 6, GP1214(Neg), MSSA ATCC #29247) was 234,286 RLU and the RLU ([1]; Table 6, GP1217(Pos), MRSA ATCC #33591) was 225,772 RLU. The RLU ([1]; Table 6, GP1218(Pos), MRSA ATCC #43866) was 203,488 RLU, the “HPA Results (# positive for indicated probes)” value ([2]; ATCC MRSA, 1 isolate, Oxacillin MIC 16 μg/ml) was 1 and the “HPA Results (# positive for indicated probes)” value ([2]; ATCC MSSA, 1 isolate, Oxacillin MIC 1 μg/ml) was 1. For the same substance, the “HPA Results (# positive for indicated probes)” value ([2]; ATCC MSSA, 4 isolates, Oxacillin MIC 0.5 μg/ml) was 4, the “HPA Results (# positive for indicated probes)” value ([2]; ATCC MSSA, 6 isolates, Oxacillin MIC ≦0.25 μg/ml) was 6 and the “HPA Results (# positive for indicated probes)” value ([2]; Clinical MRSA, 8 isolates, Oxacillin MIC 16 μg/ml) was 8. For the same substance, the “HPA Results (# positive for indicated probes)” value ([2]; Clinical MRSA, 107 isolates, Oxacillin MIC >16 μg/ml) was 107, the “HPA Results (# positive for indicated probes)” value ([2]; Clinical MSSA, 28 isolates, Oxacillin MIC 0.5 μg/ml) was 28 and the “HPA Results (# positive for indicated probes)” value ([2]; Clinical MSSA, 99 isolates, Oxacillin MIC ≦0.25 μg/ml) was 99. For the same substance, the “HPA Results (RLU)” value ([2]; GP21 (S. aureus, mecA(−), MSSA)) was 373232 RLU, the “HPA Results (RLU)” value ([2]; GP22 (CoNS, mecA(+))) was 225141 RLU and the “HPA Results (RLU)” value ([2]; GP23 (S. aureus, mecA(−))) was 301657 RLU. The “HPA Results (RLU)” value ([2]; GP24 (S. aureus, mecA(+))) was 306718 RLU, the “HPA Results (RLU)” value ([2]; GP25 (S. aureus, mecA(+))) was 456426 RLU and the “HPA Results (RLU)” value ([2]; GP26 (S. aureus, mecA(−))) was 262267 RLU. For the same substance, the “HPA Results (RLU)” value ([2]; GP27 (CoNS, mecA(−))) was 182304 RLU, the “HPA Results (RLU)” value ([2]; GP28 (S. aureus, mecA(−))) was 246636 RLU and the “HPA Results (RLU)” value ([2]; GP29 (S. aureus, mecA(+))) was 388748 RLU. The “HPA Results (RLU)” value ([2]; GP30 (S. aureus, mecA(−))) was 440128 RLU, the “HPA Results (RLU)” value ([2]; GP31 (S. aureus, mecA(+))) was 349207 RLU and the “HPA Results (RLU)” value ([2]; GP32 (S. aureus, mecA(−))) was 432041 RLU. For the same substance, the “HPA Results (RLU)” value ([2]; GP33 (S. aureus, mecA(+))) was 160830 RLU, the “HPA Results (RLU)” value ([2]; GP34 (S. aureus, mecA(−))) was 634079 RLU and the “HPA Results (RLU)” value ([2]; GP35 (S. aureus, mecA(+))) was 543089 RLU. For the same substance, the “HPA Results (RLU)” value ([2]; GP36 (S. aureus, mecA(−))) was 370898 RLU, the “HPA Results (RLU)” value ([2]; GP37 (S. aureus, mecA(+))) was 397722 RLU and the “HPA Results (RLU)” value ([2]; GP38 (S. aureus, mecA(+))) was 387613 RLU. For the same substance, the “HPA Results (RLU)” value ([2]; GP39 (S. aureus, mecA(−))) was 280358 RLU, the “HPA Results (RLU)” value ([2]; GP40 (S. aureus, mecA(−))) was 292407 RLU and the “HPA Results (RLU)” value ([2]; Neg Control (Hybridization Buffer)) was 1775 RLU. For the same substance, the “HPA Results (RLU)” value ([2]; Pos Control GP1217 (S. aureus, mecA(+), MRSA)) was 170530 RLU, the “HPA Results (# positive for indicated probes)” value ([2]; S. epidermidis, 1 isolate, Oxacillin MIC >16 μg/ml) was 1 and the “HPA Results (# positive for indicated probes)” value ([2]; S. epidermidis, 2 isolates, Oxacillin MIC ≦0.25 μg/ml) was 2. The “HPA Results (# positive for indicated probes)” value ([2]; S. hemoliticus, 1 isolate, Oxacillin MIC ≦0.25 μg/ml) was 1, the “HPA Results (# positive for indicated probes)” value ([2]; S. hominis, 1 isolate, Oxacillin MIC ≦0.25 μg/ml) was 1 and the “HPA Results (# positive for indicated probes)” value ([2]; S. hyicus-hyicus, 1 isolate, Oxacillin MIC ≦0.25 μg/ml) was 1. For the same substance, the “HPA Results (# positive for indicated probes)” value ([2]; S. intermedius, 1 isolate, Oxacillin MIC ≦0.25 μg/ml) was 1, the “HPA Results (# positive for indicated probes)” value ([2]; S. saprophyticus, 1 isolate, Oxacillin MIC 0.5 μg/ml) was 1 and the “HPA Results (# positive for indicated probes)” value ([2]; S. simulans, 1 isolate, Oxacillin MIC ≦0.25 μg/ml) was 1. The “HPA Results (# positive for indicated probes)” value ([2]; S. warneri, 1 isolate, Oxacillin MIC ≦0.25 μg/ml) was 1.

For “CGCTATGATCCCAATCTAACTTCCACATACC (AE label, linker between 21 and 22, chemistry not fully specified; listed as Staphylococcus aureus) [Probe 2]”, the “AE-probe Average RLU” value ([3]; No Specimen) was 3062 RLU, the “AE-probe Average RLU” value ([3]; S. aureus specimen #99, mecA PCR Pos) was 8072 RLU and the “AE-probe Average RLU” value ([3]; S. aureus specimen #100, mecA PCR Neg) was 5585 RLU. The “AE-Probe Signal (RLU)” value ([3]; Table 2, Negative Control) was 1931 RLU, the “AE-Probe Signal (RLU)” value ([3]; Table 2, specimen 10, mecA PCR Neg, pan-bacterial diluted 1:3000 prior to luminometry) was 3274 RLU and the “AE-Probe Signal (RLU)” value ([3]; Table 2, specimen 99, mecA PCR Pos, pan-bacterial diluted 1:3000 prior to luminometry) was 13021 RLU. The “AE-Probe Signal (RLU)” value ([3]; Table 2, specimen 100, mecA PCR Neg, pan-bacterial diluted 1:3000 prior to luminometry) was 6186 RLU, the “AE-Probe Signal (RLU)” value ([3]; Table 2, specimen 101, mecA PCR Neg, pan-bacterial diluted 1:3000 prior to luminometry) was 6266 RLU and the “AE-Probe Signal (RLU)” value ([3]; Table 2, specimen 102, mecA PCR Pos, pan-bacterial diluted 1:3000 prior to luminometry) was 13065 RLU. The “AE-Probe Signal (RLU)” value ([3]; Table 2, specimen 103, mecA PCR Neg, pan-bacterial diluted 1:3000 prior to luminometry) was 2366 RLU, the “AE-Probe Signal (RLU)” value ([3]; Table 2, specimen 104, mecA PCR Neg, pan-bacterial diluted 1:3000 prior to luminometry) was 2000 RLU and the “AE-Probe Signal (RLU)” value ([3]; Table 2, specimen 105, mecA PCR Neg, pan-bacterial diluted 1:3000 prior to luminometry) was 2714 RLU. The “AE-Probe Signal (RLU)” value ([3]; Table 2, specimen 106, mecA PCR Neg, pan-bacterial diluted 1:3000 prior to luminometry) was 2989 RLU, the “AE-Probe Signal (RLU)” value ([3]; Table 2, specimen 139, mecA PCR Pos, pan-bacterial diluted 1:3000 prior to luminometry) was 9563 RLU and the “AE-Probe Signal (RLU)” value ([3]; Table 2, specimen 140, mecA PCR Pos, pan-bacterial diluted 1:3000 prior to luminometry) was 4967 RLU. The “AE-Probe Signal (RLU)” value ([3]; Table 2, specimen 142, mecA PCR Pos, pan-bacterial diluted 1:3000 prior to luminometry) was 10345 RLU, the “AE-Probe Signal (RLU)” value ([3]; Table 2, specimen 145, mecA PCR Neg, pan-bacterial diluted 1:3000 prior to luminometry) was 2788 RLU and the “AE-Probe Signal (RLU)” value ([3]; Table 2, specimen 148, mecA PCR Pos, pan-bacterial diluted 1:3000 prior to luminometry) was 15878 RLU. The “AE-Probe Signal (RLU)” value ([3]; Table 2, specimen 155, mecA PCR Neg, pan-bacterial diluted 1:3000 prior to luminometry) was 2257 RLU, the “AE-Probe Signal (RLU)” value ([3]; Table 2, specimen 164, mecA PCR Neg, pan-bacterial diluted 1:3000 prior to luminometry) was 3287 RLU and the “AE-Probe Signal (RLU)” value ([3]; Table 2, specimen 178, mecA PCR Pos, pan-bacterial diluted 1:3000 prior to luminometry) was 12652 RLU. The “AE-Probe Signal (RLU)” value ([3]; Table 2, specimen 188, mecA PCR Pos, pan-bacterial diluted 1:3000 prior to luminometry) was 20757 RLU, the “AE-Probe Signal (RLU)” value ([3]; Table 2, specimen 270, mecA PCR Pos, pan-bacterial diluted 1:3000 prior to luminometry) was 14965 RLU and the “AE-Probe Signal (RLU)” value ([3]; Table 2, specimen 296, mecA PCR Pos, Lab Pos control, pan-bacterial diluted 1:3000 prior to luminometry) was 10585 RLU.

With “MeO-probe 2: 2′-methoxy analog of AE-labeled probe 2 (SEQ ID NO:2); linker position not printed in Table 10 (DNA CGCTATGATCCCAATCTAACTTCCACATACC; all 2'-O-methyl, backbone and T or U not given here; acridinium ester label on internal non-nucleotide linker; listed as Staphylococcus aureus)” the “GP1214(Neg) RLU” value [1, 4] was 5242 RLU, the “GP1217(Pos) RLU” value [1, 4] was 69687 RLU and the “Probe alone Avg RLU” value [1, 4] was 2378 RLU.
